Results as given in patent US8993606B2, “Oral formulations for treating metal overload” (FerroKin BioSciences, Inc., priority 2011, dated 2015).
Read-outs that look alike come from different tables or passages of the source.

Key:
[1] = Example 5: single-dose study in iron-overloaded human subjects (PK); type: in vivo; settings: for Tmax / AUC(0-inf) / AUC(0-t) / Cmax / half-life: human, plasma
Procedure: Example 5 was a single-dose, escalating study in iron-overloaded subjects. Men between the ages of 18-50 years qualified to participate if they were able to voluntarily give consent and had transfusional overload requiring treatment with an iron chelator and were willing to discontinue their chelation for a period of at least 7 days prior to screening and during the study. Eligible subjects had serum ferritin levels>300 ng/mL and ≦5000 ng/mL. Subjects had blood pressure in the normal range, ECG within normal limits and tested negative for drugs of abuse. Subjects were also HIV and Hepatitis B negative and agreed to use an approved method of contraception during the study.
The objectives of this study were to assess the safety, tolerability, and pharmacokinetics of ascending single doses of Compound 1. Additionally, dose proportionality and pharmacodynamics of Compound 1 were assessed. Four doses of Compound 1 (6, 10, 16, and 32 mg/kg), in capsule form, were evaluated in this study. Each dose level was tested in a single subject, with appropriate evaluation of safety done prior to escalating the dose. Following screening, the first subject was dosed and then confined to the clinical research unit for 24 hours to conduct safety and pharmacokinetic assessments. The subject was released from the clinic on Day 2 and returned daily for follow-up visits for 5 days post-dosing. This process was followed for each dose level.
All 4 subjects who received a dose of Compound 1 were included in the analysis of pharmacokinetic parameters.

[2] = tested on: adults with transfusional iron overload; assay: Example 10: efficacy study, liver iron concentration (LIC); type: in vivo, human; settings: for % with net iron reduction / Mean net change in hepatic iron: first 24 weeks; for LIC, Week 12 / LIC, Week 24 / LIC, Week 48: patients entering extension study
Procedure: In this Example, the safety and efficacy of Compound 1 in adults with transfusional iron overload over 48 weeks of treatment was assessed. Diagnosis and transfusional iron burden of patients (including Asians, Blacks/African Americans, and Whites) at randomization are as follows: 38 patients diagnosed with β-thalassemia major, 2 patients diagnosed with α-thalassemia major, 2 diagnosed with β-thalassemia intermedia (transfusion>7/year), 6 diagnosed with HbE-β thalassemia, and 3 diagnosed with Sickle cell disease. The patients were divided into two dosing groups: 14.5 mg/kg/day and 29 mg/kg/day. Average liver iron content at baseline (mg/g dry weight) was 13.2 with SD 6.64 for the 14.5 mg/kg/day dosing group and 13.9 with SD 7.82 for the 29 mg/kg/day dosing group. Median serum ferritin (ng/ml) was 2564 for the 14.5 mg/kg/day dosing group and 2624 for the 29 mg/kg/day dosing group. Mean pre-transfusion average haemoglobin of previous 3 transfusions (g/dL) was 9.6 (with SD of 0.56) for the 14.5 mg/kg/day dosing group and 9.8 (with SD of 0.79) for the 29 mg/kg/day dosing group. Mean daily transfusion iron intake (mg/kg/d) was about 0.36 (ranging 0.22-0.84) for the 14.5 mg/kg/day dosing group and 0.38 (ranging 0.17-0.60) for the 29 mg/kg/day dosing group. See also FIGS. 7 and 8.

[3] = single oral dose 6 mg/kg, subject 1
[4] = single oral dose 10 mg/kg, subject 2
[5] = single oral dose 16 mg/kg, subject 3
[6] = single oral dose 32 mg/kg, subject 4

For `COCCOCCOCCOc1cccc(C2=N[C@@](C)(C(=O)O)CS2)c1O` [Compound 1, (S)-4,5-Dihydro-2-[2-hydroxy-3-(3,6,9-trioxadecyloxy)phenyl]-4-methyl-4-thiazolecarboxylate magnesium hydroxide], the “total fraction of oral dose excreted in urine over 24 hour, average” value ([1]; 4 dose levels) was 39%, the “dose proportionality of Cmax and AUC” value ([1]; 6-32 mg/kg dose range) was “dose-proportional” and the “plasma concentrations at 24 hours post-dose” value ([1]; all subjects, 6, 10, 16 and 32 mg/kg) was < 1 % of Cmax. The Tmax ([1]; single oral dose 6 mg/kg (360 mg), subject 1, read-out: tmax) was 1 h, the AUC(0-inf) [1, 3] was 46300 ng·h/mL and the AUC(0-t) [1, 3] was 45900 ng·h/mL. The Cmax [1, 3] was 14900 ng/mL, the Tmax ([1]; single oral dose 10 mg/kg (583 mg), subject 2, read-out: tmax) was 0.77 h and the AUC(0-inf) [1, 4] was 69700 ng·h/mL. It also gave an AUC(0-t) [1, 4] of 69200 ng·h/mL, a Cmax [1, 4] of 35400 ng/mL and a Tmax ([1]; single oral dose 16 mg/kg (1288 mg), subject 3, read-out: tmax) of 1 h. The AUC(0-inf) [1, 5] was 122000 ng·h/mL, the AUC(0-t) [1, 5] was 122000 ng·h/mL and the Cmax [1, 5] was 38500 ng/mL. For the same molecule, the Tmax ([1]; single oral dose 32 mg/kg (2214.4 mg), subject 4, read-out: tmax) was 1 h, the AUC(0-inf) [1, 6] was 159000 ng·h/mL and the AUC(0-t) [1, 6] was 157000 ng·h/mL. It also gave a Cmax [1, 6] of 47600 ng/mL, a half-life ([1]; male, oral, 6-32 mg/kg single dose, read-out: terminal half-life, range) of 16 to 30 h and a half-life ([1]; male, oral, averaged across all dose levels, read-out: mean t1/2 (converted)) of 23.7 h. For the same molecule, the Tmax ([1]; male, oral, averaged across all dose levels, read-out: mean tmax) was 0.925 h, the “total fraction of oral dose excreted in urine over 24 hour” value ([1]; range across the 4 dose levels) was 28-51% and the CL/F [1, 3] was 7.9 L/h. For the same molecule, the CL/F [1, 4] was 8.4 L/h, the CL/F [1, 5] was 10.6 L/h and the CL/F [1, 6] was 14.1 L/h. The “% with net iron reduction” value ([2]; 14.5 mg/kg) was 29%, the “Mean net change in hepatic iron” value ([2]; 14.5 mg/kg) was 3.1 mg/g-dw and the “% with net iron reduction” value ([2]; 29 mg/kg) was 44%. For the same molecule, the “Mean net change in hepatic iron” value ([2]; 29 mg/kg) was −0.3 mg/g-dw, the “LIC, Week 12” value ([2]; initial dose 14.5 mg/kg/day) was 13.7 (1.74) and the “LIC, Week 24” value ([2]; initial dose 14.5 mg/kg/day) was 13.6 (1.94). For the same molecule, the “LIC, Week 48” value ([2]; initial dose 14.5 mg/kg/day) was 11.7 (1.46), the “LIC, Week 12” value ([2]; initial dose 29 mg/kg/day) was 13.6 (2.04) and the “LIC, Week 24” value ([2]; initial dose 29 mg/kg/day) was 12.8 (1.79). The “LIC, Week 48” value ([2]; initial dose 29 mg/kg/day) was 11.8 (2.04) and the “effect on liver iron concentration in iron overload patients” value ([2]; once daily oral, dose as low as 14.5 mg/kg of body weight) was “reduces liver iron concentration”.
